Key:
[1] = biological target: T1, human recombinant HDAC1 (Homo sapiens, UniProt Q13547); assay: HDAC enzyme activity inhibition assay (HDAC Fluorimetric Drug Discovery Kit), HDAC1; type: biochemical; details: human recombinant HDAC1, Fluor de Lys-SIRT1 substrate, 30° C. 60 minutes
T1 construct: purchased Enzo Life Sciences, Inc. BML-SE456
Description: (§1) For the HDAC1 enzyme activity test, human recombinant HDAC1 (BML-SE456) was used as an enzyme source and Fluor de Lys©-SIRT1 (BNL-K1177) was used as a substrate. After dispensing 5-fold diluted compounds into a 96-well plate, 0.3 μg of enzyme and 10 μM substrate were added to each well of the plate and allowed to react at 30° C. for 60 minutes. Next, Fluor de Lys© Developer II (BML-K1176) was added and reacted for 30 minutes to complete the reaction, and then the fluorescence values (Ex 360, Em 460) were measured using a multi-plate reader (Flexstation 3, Molecular Device). The HDAC6 enzymes were tested using human recombinant HDAC6 (382180) from Calbiochem Inc., according to the same protocol as the HDAC1 enzyme activity test method. With respect to the final result values, respective IC50 values were calculated using GraphPad Prism 4.0 program (Table 2).

[2] = biological target: T2, human recombinant HDAC6 (Homo sapiens, UniProt Q9UBN7); assay: HDAC enzyme activity inhibition assay (HDAC Fluorimetric Drug Discovery Kit), HDAC6; type: biochemical; details: for HDAC6 selectivity (fold): HDAC1 vs HDAC6; for IC50: human recombinant HDAC6, same protocol as HDAC1
T2 construct: purchased Calbiochem Inc. 382180
T2 sequence (Q9UBN7 1-1215): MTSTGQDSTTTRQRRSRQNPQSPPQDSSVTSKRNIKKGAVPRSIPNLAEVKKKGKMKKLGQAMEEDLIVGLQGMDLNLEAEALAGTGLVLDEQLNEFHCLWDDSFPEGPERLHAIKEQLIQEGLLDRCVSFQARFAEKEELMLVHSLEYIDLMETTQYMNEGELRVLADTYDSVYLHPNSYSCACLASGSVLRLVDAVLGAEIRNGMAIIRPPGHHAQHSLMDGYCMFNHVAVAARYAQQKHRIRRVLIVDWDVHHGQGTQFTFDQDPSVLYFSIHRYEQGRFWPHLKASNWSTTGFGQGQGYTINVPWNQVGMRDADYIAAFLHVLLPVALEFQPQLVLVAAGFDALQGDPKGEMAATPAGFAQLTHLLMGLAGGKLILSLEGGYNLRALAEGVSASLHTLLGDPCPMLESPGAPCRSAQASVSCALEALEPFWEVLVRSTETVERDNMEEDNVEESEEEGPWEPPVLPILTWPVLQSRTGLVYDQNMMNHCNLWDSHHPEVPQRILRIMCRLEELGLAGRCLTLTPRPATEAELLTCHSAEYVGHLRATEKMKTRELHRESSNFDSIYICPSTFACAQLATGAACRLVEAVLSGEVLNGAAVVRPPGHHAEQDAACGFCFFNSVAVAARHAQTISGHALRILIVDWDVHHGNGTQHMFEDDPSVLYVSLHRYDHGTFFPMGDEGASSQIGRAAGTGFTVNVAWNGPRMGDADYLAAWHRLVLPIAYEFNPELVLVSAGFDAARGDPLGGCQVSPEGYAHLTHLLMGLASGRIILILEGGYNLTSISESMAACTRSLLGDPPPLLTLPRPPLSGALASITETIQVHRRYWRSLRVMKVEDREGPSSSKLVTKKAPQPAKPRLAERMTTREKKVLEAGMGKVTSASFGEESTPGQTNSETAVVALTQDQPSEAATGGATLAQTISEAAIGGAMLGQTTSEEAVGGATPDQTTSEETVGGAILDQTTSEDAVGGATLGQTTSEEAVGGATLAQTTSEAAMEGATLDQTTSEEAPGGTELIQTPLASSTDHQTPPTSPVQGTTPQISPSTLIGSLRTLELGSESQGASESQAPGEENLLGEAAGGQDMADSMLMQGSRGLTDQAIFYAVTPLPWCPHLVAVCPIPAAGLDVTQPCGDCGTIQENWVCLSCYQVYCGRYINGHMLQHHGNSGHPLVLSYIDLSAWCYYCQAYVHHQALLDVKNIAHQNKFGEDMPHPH
Description: as §1

T1 sequence (Q13547 whole entry): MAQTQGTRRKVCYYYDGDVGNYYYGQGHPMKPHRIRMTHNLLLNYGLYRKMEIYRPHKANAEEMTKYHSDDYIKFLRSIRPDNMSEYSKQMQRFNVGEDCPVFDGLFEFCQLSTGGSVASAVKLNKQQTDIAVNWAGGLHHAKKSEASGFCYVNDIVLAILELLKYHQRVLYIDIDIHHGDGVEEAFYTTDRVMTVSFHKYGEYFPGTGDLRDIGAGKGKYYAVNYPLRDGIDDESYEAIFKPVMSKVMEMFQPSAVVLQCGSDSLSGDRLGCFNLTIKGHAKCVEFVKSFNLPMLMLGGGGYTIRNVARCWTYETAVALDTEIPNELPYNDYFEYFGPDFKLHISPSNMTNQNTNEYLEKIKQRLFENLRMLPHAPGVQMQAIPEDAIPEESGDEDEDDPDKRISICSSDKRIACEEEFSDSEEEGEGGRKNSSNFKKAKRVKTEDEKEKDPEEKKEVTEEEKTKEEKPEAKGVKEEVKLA

| SMILES | IC50 [1] [nM] | HDAC6 selectivity (fold) [2] | IC50 [2] [nM] |
| --- | --- | --- | --- |
| O=C(N(Cc1ccc(-c2nnc(C(F)F)o2)cc1F)c1ccccc1)C1(F)CCNCC1 [Compound 2865, N-(4-(5-(difluoromethyl)-1,3,4-oxadiazol-2-yl)-2-fluorobenzyl)-4-fluoro-N-phenylpiperidine-4-carboxamide 2,2,2-trifluoroacetate] | > 30000 | 30 fold | 1000 |
| CN1CCC(F)(C(=O)N(Cc2ccc(-c3nnc(C(F)F)o3)cc2F)c2ccccc2)CC1 [Compound 2866, N-(4-(5-(difluoromethyl)-1,3,4-oxadiazol-2-yl)-2-fluorobenzyl)-4-fluoro-1-methyl-N-phenylpiperidine-4-carboxamide] | > 20000 | 149 fold | 134 |
| CCN1CCC(F)(C(=O)N(Cc2ccc(-c3nnc(C(F)F)o3)cc2F)c2ccccc2)CC1 [Compound 2867, N-(4-(5-(difluoromethyl)-1,3,4-oxadiazol-2-yl)-2-fluorobenzyl)-1-ethyl-4-fluoro-N-phenylpiperidine-4-carboxamide] | > 20000 | 97 fold | 204 |
| O=C(N(Cc1ccc(-c2nnc(C(F)F)o2)cc1F)c1ccccc1)C1(F)CCN(C2CCC2)CC1 [Compound 2868, 1-cyclobutyl-N-(4-(5-(difluoromethyl)-1,3,4-oxadiazol-2-yl)-2-fluorobenzyl)-4-fluoro-N-phenylpiperidine-4-carboxamide] | > 20000 | – | – |
| O=C(N(Cc1ccc(-c2nnc(C(F)F)o2)cc1F)c1ccccc1)C1(F)CCN(C2COC2)CC1 [Compound 2869, N-(4-(5-(difluoromethyl)-1,3,4-oxadiazol-2-yl)-2-fluorobenzyl)-4-fluoro-1-(oxetan-3-yl)-N-phenylpiperidine-4-carboxamide] | > 50000 | 464 fold | 108 |
| CN1CCC(F)(C(=O)N(Cc2ccc(-c3nnc(C(F)F)o3)cn2)c2ccccc2)CC1 [Compound 2951, N-((5-(5-(difluoromethyl)-1,3,4-oxadiazol-2-yl)pyridin-2-yl)methyl)-4-fluoro-1-methyl-N-phenylpiperidine-4-carboxamide] | 42600 | 569 fold | 74.7 |
| CC(C)N1CCC(F)(C(=O)N(Cc2ccc(-c3nnc(C(F)F)o3)cn2)c2ccccc2)CC1 [Compound 2952, N-((5-(5-(difluoromethyl)-1,3,4-oxadiazol-2-yl)pyridin-2-yl)methyl)-4-fluoro-1-isopropyl-N-phenylpiperidine-4-carboxamide] | > 50000 | 504 fold | 99.1 |
| O=C(N(Cc1ccc(-c2nnc(C(F)F)o2)cn1)c1ccccc1)C1(F)CCN(C2CCC2)CC1 [Compound 2953, 1-cyclobutyl-N-((5-(5-(difluoromethyl)-1,3,4-oxadiazol-2-yl)pyridin-2-yl)methyl)-4-fluoro-N-phenylpiperidine-4-carboxamide] | 44000 | 543 fold | 80.9 |
| CN1CCC(F)(C(=O)N(Cc2ccc(-c3nnc(C(F)F)o3)cn2)c2cccc(F)c2)CC1 [Compound 2969, N-((5-(5-(difluoromethyl)-1,3,4-oxadiazol-2-yl)pyridin-2-yl)methyl)-4-fluoro-N-(3-fluorophenyl)-1-methylpiperidine-4-carboxamide] | > 50000 | 1,298 fold | 38.5 |
| CC(C)N1CCC(F)(C(=O)N(Cc2ccc(-c3nnc(C(F)F)o3)cn2)c2cccc(F)c2)CC1 [Compound 2970, N-((5-(5-(difluoromethyl)-1,3,4-oxadiazol-2-yl)pyridin-2-yl)methyl)-4-fluoro-N-(3-fluorophenyl)-1-isopropylpiperidine-4-carboxamide] | > 50000 | 1,046 fold | 47.8 |
| O=C(N(Cc1ccc(-c2nnc(C(F)F)o2)cn1)c1cccc(F)c1)C1(F)CCN(C2CCC2)CC1 [Compound 2971, 1-cyclobutyl-N-((5-(5-(difluoromethyl)-1,3,4-oxadiazol-2-yl)pyridin-2-yl)methyl)-4-fluoro-N-(3-fluorophenyl)piperidine-4-carboxamide] | > 50000 | 740 fold | 67.5 |
| O=C(N(Cc1ccc(-c2nnc(C(F)F)o2)cn1)c1cccc(F)c1)C1(F)CCN(C2COC2)CC1 [Compound 2972, N-((5-(5-(difluoromethyl)-1,3,4-oxadiazol-2-yl)pyridin-2-yl)methyl)-4-fluoro-N-(3-fluorophenyl)-1-(oxetan-3-yl)piperidine-4-carboxamide] | > 50000 | 1,190 fold | 42 |
| CN1CC(F)(C(=O)N(Cc2ccc(-c3nnc(C(F)F)o3)cn2)c2ccccc2)C1 [Compound 2973, N-((5-(5-(difluoromethyl)-1,3,4-oxadiazol-2-yl)pyridin-2-yl)methyl)-3-fluoro-1-methyl-N-phenylazetidine-3-carboxamide] | > 50000 | 1,075 fold | 46.5 |
| CC(C)N1CC(F)(C(=O)N(Cc2ccc(-c3nnc(C(F)F)o3)cn2)c2ccccc2)C1 [Compound 2974, N-((5-(5-(difluoromethyl)-1,3,4-oxadiazol-2-yl)pyridin-2-yl)methyl)-3-fluoro-1-isopropyl-N-phenylazetidine-3-carboxamide] | > 50000 | 1,054 fold | 47.4 |
| O=C(N(Cc1ccc(-c2nnc(C(F)F)o2)cn1)c1ccccc1)C1(F)CN(C2CCC2)C1 [Compound 2975, 1-cyclobutyl-N-((5-(5-(difluoromethyl)-1,3,4-oxadiazol-2-yl)pyridin-2-yl)methyl)-3-fluoro-N-phenylazetidine-3-carboxamide] | > 50000 | 1,022 fold | 48.9 |
| O=C(N(Cc1ccc(-c2nnc(C(F)F)o2)cn1)c1ccccc1)C1(F)CCN(C2CC3(COC3)C2)CC1 [Compound 2995, N-((5-(5-(difluoromethyl)-1,3,4-oxadiazol-2-yl)pyridin-2-yl)methyl)-4-fluoro-N-phenyl-1-(2-oxaspiro[3.3]heptan-6-yl)piperidine-4-carboxamide] | > 50000 | 600 fold | 83.3 |
| O=C(N(Cc1ccc(-c2nnc(C(F)F)o2)cn1)c1cccc(F)c1)C1(F)CN(C2CCCC2)C1 [Compound 3051, 1-cyclopentyl-N-((5-(5-(difluoromethyl)-1,3,4-oxadiazol-2-yl)pyridin-2-yl)methyl)-3-fluoro-N-(3-fluorophenyl)azetidine-3-carboxamide] | > 50000 | – | – |
| COCCC(=O)N1CC(F)(C(=O)N(Cc2ccc(-c3nnc(C(F)F)o3)cn2)c2cccc(F)c2)C1 [Compound 3167, N-((5-(5-(difluoromethyl)-1,3,4-oxadiazol-2-yl)pyridin-2-yl)methyl)-3-fluoro-N-(3-fluorophenyl)-1-(3-methoxypropanoyl)azetidine-3-carboxamide] | > 50000 | – | – |
| O=C(N1CCC(F)(C(=O)N(Cc2ccc(-c3nnc(C(F)F)o3)cc2F)c2ccccc2)CC1)C(F)(F)F [Compound 3441, N-(4-(5-(difluoromethyl)-1,3,4-oxadiazol-2-yl)-2-fluorobenzyl)-4-fluoro-N-phenyl-1-(2,2,2-trifluoroacetyl)piperidine-4-carboxamide] | > 50000 | – | – |

— US20230278995A1, “1,3,4-OXADIAZOLE DERIVATIVE COMPOUNDS AS HISTONE DEACETYLASE 6 INHIBITOR, AND THE PHARMACEUTICAL COMPOSITION COMPRISING THE SAME” (CHONG KUN DANG PHARMACEUTICAL CORP., priority 2020, published 2023)
